Experimental data taken from ChEMBL document CHEMBL3397011, “A novel molecule with notable activity against multi-drug resistant tuberculosis” (Bioorg Med Chem Lett, 2015).

What was measured:
[1] = Toxicity against macrophages (unknown origin) assessed cell viability at 4 times MIC level after 7 days by MTT assay; format: cell-based, Macrophage; details: read-out: Activity
[2] = target: T1, UDP-glucuronosyltransferase 1A6 (Homo sapiens, UniProt P19224); test: Drug metabolism assessed as UGT1A6-mediated compound glucuronidation in pooled mixed-gender human liver microsomes at 50 uM preincubated at 37 degC for 3 mins before UDPGA addition by HPLC method; format: ADME
T1 sequence (P19224 whole entry): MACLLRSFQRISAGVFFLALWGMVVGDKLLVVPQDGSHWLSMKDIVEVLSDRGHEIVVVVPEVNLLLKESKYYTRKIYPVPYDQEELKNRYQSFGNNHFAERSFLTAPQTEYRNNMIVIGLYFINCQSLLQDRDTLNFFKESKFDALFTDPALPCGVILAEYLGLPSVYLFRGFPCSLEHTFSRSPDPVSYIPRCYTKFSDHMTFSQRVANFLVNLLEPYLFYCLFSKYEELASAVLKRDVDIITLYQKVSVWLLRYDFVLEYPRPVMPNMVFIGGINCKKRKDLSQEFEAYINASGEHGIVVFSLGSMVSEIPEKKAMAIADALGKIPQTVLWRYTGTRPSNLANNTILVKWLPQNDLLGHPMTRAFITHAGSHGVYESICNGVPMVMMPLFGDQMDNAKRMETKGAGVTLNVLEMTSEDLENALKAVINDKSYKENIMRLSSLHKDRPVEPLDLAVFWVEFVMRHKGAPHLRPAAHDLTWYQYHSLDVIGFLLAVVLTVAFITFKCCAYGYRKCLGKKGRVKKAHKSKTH

[3] = target: T2, UDP-glucuronosyltransferase 2B7 (Homo sapiens, UniProt P16662); test: Drug metabolism assessed as UGT2B7-mediated compound glucuronidation in pooled mixed-gender human liver microsomes at 50 uM preincubated at 37 degC for 3 mins before UDPGA addition by HPLC method; format: ADME
T2 sequence (P16662 whole entry): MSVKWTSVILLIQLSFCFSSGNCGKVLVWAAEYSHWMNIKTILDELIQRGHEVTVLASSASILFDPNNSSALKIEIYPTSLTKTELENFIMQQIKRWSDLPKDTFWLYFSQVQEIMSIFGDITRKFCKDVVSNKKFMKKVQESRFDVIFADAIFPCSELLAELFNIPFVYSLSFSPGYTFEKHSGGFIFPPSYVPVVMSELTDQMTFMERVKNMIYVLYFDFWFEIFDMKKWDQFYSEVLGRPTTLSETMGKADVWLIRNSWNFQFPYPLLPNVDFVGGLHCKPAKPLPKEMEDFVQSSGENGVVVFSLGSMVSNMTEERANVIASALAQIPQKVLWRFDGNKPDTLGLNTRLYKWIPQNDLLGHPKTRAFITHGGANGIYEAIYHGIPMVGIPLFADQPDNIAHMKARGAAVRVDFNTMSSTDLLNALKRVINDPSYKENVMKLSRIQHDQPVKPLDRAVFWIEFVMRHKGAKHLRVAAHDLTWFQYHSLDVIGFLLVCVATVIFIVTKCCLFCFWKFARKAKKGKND

[4] = target: T3, UDP-glucuronosyltransferase 1A1 (Homo sapiens, UniProt P22309); test: Drug metabolism assessed as UGT1A1-mediated compound glucuronidation in pooled mixed-gender human liver microsomes at 50 uM preincubated at 37 degC for 3 mins before UDPGA addition by HPLC method; format: ADME
T3 sequence (P22309 whole entry): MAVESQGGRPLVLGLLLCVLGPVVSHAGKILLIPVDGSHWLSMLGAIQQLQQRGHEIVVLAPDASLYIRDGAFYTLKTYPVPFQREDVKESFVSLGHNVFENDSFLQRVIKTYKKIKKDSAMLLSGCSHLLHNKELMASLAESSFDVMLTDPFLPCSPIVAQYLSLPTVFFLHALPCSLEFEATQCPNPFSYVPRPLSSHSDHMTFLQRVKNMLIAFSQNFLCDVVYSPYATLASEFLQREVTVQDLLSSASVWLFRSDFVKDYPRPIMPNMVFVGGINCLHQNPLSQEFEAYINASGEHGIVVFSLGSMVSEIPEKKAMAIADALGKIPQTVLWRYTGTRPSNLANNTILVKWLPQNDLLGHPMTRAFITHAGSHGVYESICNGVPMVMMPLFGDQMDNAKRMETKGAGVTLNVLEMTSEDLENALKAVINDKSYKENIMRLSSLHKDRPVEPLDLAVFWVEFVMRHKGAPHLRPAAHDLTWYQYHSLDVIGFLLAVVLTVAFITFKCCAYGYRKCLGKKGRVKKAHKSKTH

[5] = target: T4, UDP-glucuronosyltransferase 1A4 (Homo sapiens, UniProt P22310); test: Drug metabolism assessed as UGT1A4-mediated compound glucuronidation in pooled mixed-gender human liver microsomes at 50 uM preincubated at 37 degC for 3 mins before UDPGA addition by HPLC method; format: ADME
T4 sequence (P22310 whole entry): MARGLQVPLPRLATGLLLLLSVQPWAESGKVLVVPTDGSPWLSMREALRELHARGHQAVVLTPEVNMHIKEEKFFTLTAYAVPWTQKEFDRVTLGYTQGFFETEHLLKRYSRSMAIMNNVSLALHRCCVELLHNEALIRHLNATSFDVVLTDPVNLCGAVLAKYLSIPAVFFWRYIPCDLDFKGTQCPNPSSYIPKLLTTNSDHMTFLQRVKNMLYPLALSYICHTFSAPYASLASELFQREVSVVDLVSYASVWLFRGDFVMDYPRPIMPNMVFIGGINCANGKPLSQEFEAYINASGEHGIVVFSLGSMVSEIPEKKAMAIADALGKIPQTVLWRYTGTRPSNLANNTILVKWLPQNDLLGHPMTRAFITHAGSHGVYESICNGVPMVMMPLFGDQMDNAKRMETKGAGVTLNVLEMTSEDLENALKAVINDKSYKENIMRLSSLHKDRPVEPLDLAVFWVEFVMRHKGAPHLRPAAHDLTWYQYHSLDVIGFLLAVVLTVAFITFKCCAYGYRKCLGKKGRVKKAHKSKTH

[6] = target: T5, UDP-glucuronosyltransferase 1A9 (Homo sapiens, UniProt O60656); test: Drug metabolism assessed as UGT1A9-mediated compound glucuronidation in pooled mixed-gender human liver microsomes at 50 uM preincubated at 37 degC for 3 mins before UDPGA addition by HPLC method; format: ADME
T5 sequence (O60656 whole entry): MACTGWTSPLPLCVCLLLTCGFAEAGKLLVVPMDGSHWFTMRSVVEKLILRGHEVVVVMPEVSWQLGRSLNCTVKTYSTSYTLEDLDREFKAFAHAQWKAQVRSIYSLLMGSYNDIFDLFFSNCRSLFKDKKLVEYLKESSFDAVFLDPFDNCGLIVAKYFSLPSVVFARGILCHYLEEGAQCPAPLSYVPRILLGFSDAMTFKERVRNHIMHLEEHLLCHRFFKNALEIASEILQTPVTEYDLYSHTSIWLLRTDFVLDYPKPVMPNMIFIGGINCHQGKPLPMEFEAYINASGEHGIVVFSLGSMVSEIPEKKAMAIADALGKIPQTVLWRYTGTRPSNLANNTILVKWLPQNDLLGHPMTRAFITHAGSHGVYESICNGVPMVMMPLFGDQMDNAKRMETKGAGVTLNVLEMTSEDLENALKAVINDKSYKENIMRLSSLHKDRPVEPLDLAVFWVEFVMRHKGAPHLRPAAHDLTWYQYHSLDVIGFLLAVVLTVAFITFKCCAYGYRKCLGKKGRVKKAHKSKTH

[7] = target: T1, UDP-glucuronosyltransferase 1A6; test: Activation of UGT1A6 in pooled mixed-gender human liver microsomes at 50 uM preincubated at 37 degC for 3 mins before UDPGA addition by HPLC method; format: ADME
[8] = test system: Human immunodeficiency virus 1; test: Antiviral activity against HIV1 infected in human MAGI-R5 cells; format: functional, organism-based; details: Human immunodeficiency virus 1, MAGI-R5
Cytochrome P450 3A4 [9] = target: T6, Cytochrome P450 3A4 (Homo sapiens, UniProt P08684); test: Inhibition of CYP3A4 in pooled mixed-gender human liver microsomes using triazolam substrate in presence of NADPH pre-incubated for 3 mins by HPLC-UV detection method; format: ADME
T6 sequence (P08684 whole entry): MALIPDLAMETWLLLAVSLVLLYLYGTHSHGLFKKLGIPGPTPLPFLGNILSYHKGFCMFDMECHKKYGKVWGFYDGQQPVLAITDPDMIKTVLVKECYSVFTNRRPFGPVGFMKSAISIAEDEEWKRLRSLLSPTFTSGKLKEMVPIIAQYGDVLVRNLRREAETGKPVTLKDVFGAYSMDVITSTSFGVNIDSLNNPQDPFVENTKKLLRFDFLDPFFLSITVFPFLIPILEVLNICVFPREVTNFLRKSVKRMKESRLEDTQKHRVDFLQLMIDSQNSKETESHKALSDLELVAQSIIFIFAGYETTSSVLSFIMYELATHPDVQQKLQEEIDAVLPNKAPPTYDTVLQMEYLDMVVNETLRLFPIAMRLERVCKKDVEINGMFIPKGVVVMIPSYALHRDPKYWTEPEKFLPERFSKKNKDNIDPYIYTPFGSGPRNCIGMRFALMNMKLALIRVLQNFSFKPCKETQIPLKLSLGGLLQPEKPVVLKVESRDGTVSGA

[10] = target: T4, UDP-glucuronosyltransferase 1A4; test: Activation of UGT1A4 in pooled mixed-gender human liver microsomes at 100 uM preincubated at 37 degC for 3 mins before UDPGA addition by HPLC method; format: ADME
Cytochrome P450 2D6 [11] = target: T7, Cytochrome P450 2D6 (Homo sapiens, UniProt P10635); test: Inhibition of […] in pooled mixed-gender human liver microsomes at <25 uM using dextromethorphan substrate in presence of NADPH pre-incubated for 3 mins by HPLC-UV detection method; format: ADME
T7 sequence (P10635 whole entry): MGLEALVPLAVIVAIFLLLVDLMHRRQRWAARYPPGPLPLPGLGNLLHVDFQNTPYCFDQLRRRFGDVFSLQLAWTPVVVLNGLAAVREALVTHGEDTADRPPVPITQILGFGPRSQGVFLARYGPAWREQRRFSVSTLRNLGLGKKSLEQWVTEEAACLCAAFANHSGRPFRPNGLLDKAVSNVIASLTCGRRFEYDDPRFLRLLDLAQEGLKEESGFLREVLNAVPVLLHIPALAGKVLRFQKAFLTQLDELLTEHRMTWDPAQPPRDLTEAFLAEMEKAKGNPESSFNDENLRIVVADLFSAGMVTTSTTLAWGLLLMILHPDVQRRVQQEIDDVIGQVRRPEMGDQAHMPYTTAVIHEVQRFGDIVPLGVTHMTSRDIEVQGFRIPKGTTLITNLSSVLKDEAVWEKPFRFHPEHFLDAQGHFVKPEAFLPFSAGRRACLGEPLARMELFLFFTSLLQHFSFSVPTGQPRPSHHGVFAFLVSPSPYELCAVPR

Cytochrome P450 2D6 [12] = target: T7, Cytochrome P450 2D6; test: Inhibition of […] in pooled mixed-gender human liver microsomes using dextromethorphan substrate in presence of NADPH pre-incubated for 3 mins by HPLC-UV detection method; format: ADME
[13] = Dissociation constant, pKa of the compound; format: physicochemical
[14] = target: T5, UDP-glucuronosyltransferase 1A9; test: Inhibition of UGT1A9 in pooled mixed-gender human liver microsomes using 4-methylumbelliferone substrate by HPLC method; format: ADME
[15] = target: T3, UDP-glucuronosyltransferase 1A1; test: Inhibition of UGT1A1 in pooled mixed-gender human liver microsomes using 4-methylumbelliferone substrate by HPLC method; format: ADME
Cytochrome P450 3A4 [16] = target: T6, Cytochrome P450 3A4; test: Inhibition of CYP3A4 in pooled mixed-gender human liver microsomes at <25 uM using triazolam substrate in presence of NADPH pre-incubated for 3 mins by HPLC-UV detection method; format: ADME
Cytochrome P450 3A4 [17] = target: T6, Cytochrome P450 3A4; test: Inhibition of CYP3A4 in pooled mixed-gender human liver microsomes using testosterone substrate in presence of NADPH pre-incubated for 3 mins by HPLC-UV detection method; format: ADME
Cytochrome P450 2D6 [18] = target: T7, Cytochrome P450 2D6; test: Activation of […] in pooled mixed-gender human liver microsomes using dextromethorphan substrate in presence of NADPH pre-incubated for 3 mins by HPLC-UV detection method; format: ADME
Liver microsome = test: Half life in pooled mixed-gender human liver microsomes at 50 uM in presence of NADPH pre-incubated for 3 mins before NADPH addition followed by incubation for 60 mins by reversed-phase HPLC method; format: ADME; details: 1 h
Cytochrome P450 3A4 [19] = target: T6, Cytochrome P450 3A4; test: Activation of CYP3A4 in pooled mixed-gender human liver microsomes using testosterone substrate in presence of NADPH pre-incubated for 3 mins by HPLC-UV detection method; format: ADME
[20] = target: T3, UDP-glucuronosyltransferase 1A1; test: Activation of UGT1A1 in pooled mixed-gender human liver microsomes at 50 uM preincubated at 37 degC for 3 mins before UDPGA addition by HPLC method; format: ADME
[21] = target: T2, UDP-glucuronosyltransferase 2B7; test: Activation of UGT2B7 in pooled mixed-gender human liver microsomes at 50 uM preincubated at 37 degC for 3 mins before UDPGA addition by HPLC method; format: ADME
Cytochrome P450 3A4 [22] = target: T6, Cytochrome P450 3A4; test: Activation of CYP3A4 in pooled mixed-gender human liver microsomes using triazolam substrate in presence of NADPH pre-incubated for 3 mins by HPLC-UV detection method; format: ADME
Cytochrome P450 3A4 [23] = target: T6, Cytochrome P450 3A4; test: Inhibition of CYP3A4 in pooled mixed-gender human liver microsomes at <25 uM using testosterone substrate in presence of NADPH pre-incubated for 3 mins by HPLC-UV detection method; format: ADME
[24] = target: T1, UDP-glucuronosyltransferase 1A6; test: Inhibition of UGT1A6 in pooled mixed-gender human liver microsomes using 4-methylumbelliferone substrate by HPLC method; format: ADME
[25] = target: T5, UDP-glucuronosyltransferase 1A9; test: Activation of UGT1A9 in pooled mixed-gender human liver microsomes at 50 uM preincubated at 37 degC for 3 mins before UDPGA addition by HPLC method; format: ADME
[26] = target: T4, UDP-glucuronosyltransferase 1A4; test: Activation of UGT1A4 in pooled mixed-gender human liver microsomes at 50 uM preincubated at 37 degC for 3 mins before UDPGA addition by HPLC method; format: ADME
[27] = target: T4, UDP-glucuronosyltransferase 1A4; test: Inhibition of UGT1A4 in pooled mixed-gender human liver microsomes using 4-methylumbelliferone substrate by HPLC method; format: ADME
[28] = target: T2, UDP-glucuronosyltransferase 2B7; test: Inhibition of […] in pooled mixed-gender human liver microsomes using 4-methylumbelliferone substrate by HPLC method; format: ADME

[H]/N=C(/N)N[C@H]1[C@H](O)[C@@H](O)[C@H](O[C@@H]2O[C@@H](C)[C@](O)(C=O)[C@H]2O[C@@H]2O[C@@H](CO)[C@H](O)[C@@H](O)[C@@H]2NC)[C@@H](N/C(N)=N\[H])[C@@H]1O [STREPTOMYCIN]
viability at 168 h, 4 times MIC [1]: 90%

Cc1nnc(C(=O)NC(C)(C)c2nc(C(=O)NCc3ccc(F)cc3)c(O)c(=O)n2C)o1 [RALTEGRAVIR]
Drug metabolism [2]: metabolite_detected
Drug metabolism [3]: metabolite_detected
Drug metabolism [4]: metabolite_detected
Drug metabolism [5]: metabolite_detected
Drug metabolism [6]: metabolite_detected

O=C(/C=C(\O)C(=O)N1CCN(c2ccc(-n3cccc3)cc2)CC1)c1cc(Cc2cc(F)cc(F)c2)cn(Cc2ccccc2F)c1=O
Drug metabolism [2]: metabolite_notdetected
Activity [7]: Not Active
IC50 [8]: 0.05 µM
IC50 (Cytochrome P450 3A4 [9]): > 85 µM
Activity [10]: Active
inhibition (INH) (Cytochrome P450 2D6 [11]): Not Active
IC50 (Cytochrome P450 2D6 [12]): > 185 µM
pKa [13]: 9
IC50 [14]: > 300 µM
IC50 [15]: > 300 µM
inhibition (INH) (Cytochrome P450 3A4 [16]): Not Active
IC50 (Cytochrome P450 3A4 [17]): > 50 µM
Activity (Cytochrome P450 2D6 [18]): Not Active
t1/2 (Liver microsome): 14.4 h
Drug metabolism [3]: metabolite_notdetected
Drug metabolism [4]: metabolite_notdetected
Activity (Cytochrome P450 3A4 [19]): Not Active
Activity [20]: Not Active
Activity [21]: Not Active
Drug metabolism [5]: metabolite_notdetected
Activity (Cytochrome P450 3A4 [22]): Not Active
inhibition (INH) (Cytochrome P450 3A4 [23]): Not Active
IC50 [24]: > 300 µM
Activity [25]: Not Active
Drug metabolism [6]: metabolite_notdetected
Activity [26]: Not Active
IC50 [27]: Not Active
IC50 [28]: > 300 µM
viability at 168 h, 4 times MIC [1]: > 85%
